Experimental data: paper PMC12722308, “A phase 1 study of orally administered 5-fluoro-2’-deoxycytidine with tetrahydrouridine in patients with refractory solid tumors” (Cancer Chemotherapy and Pharmacology, 2025)
Marks after values point to notes of the source that are not given here. One block for each molecule: values may come before it.

Experiments:
[1] = Plasma pharmacokinetics by LC-MS/MS; type: in vivo, human
Procedure: (§1) Blood specimens for PK analysis were collected on Cycle 1 Day 1 (C1D1) prior to THU administration and then at 15, 30, and 45 min and 1, 2, 3, 4, 5, and 6 h after THU administration, as well as on C1D2 and C1D3 prior to and 2 h after THU administration. Urine specimens for PK analysis were collected on C1D1 prior to treatment and then at every void from 0 to 24 h after THU administration. All specimens for PK analysis were processed and analyzed by LC-MS/MS as described previously, and Phoenix WinNonlin software was used for data analysis.

[2] = Urinary excretion by LC-MS/MS; type: in vivo, human
Procedure: as §1

[3] = DL2: FdCyd 60 mg + THU 3000 mg oral, FU n=3, geom. mean (geom. SD)
[4] = DL3: FdCyd 90 mg + THU 3000 mg oral, FU n=3, geom. mean (geom. SD)
[5] = DL4: FdCyd 120 mg + THU 3000 mg oral, FU n=2, geom. mean (geom. SD)
[6] = DL5-9: FdCyd 160 mg + THU 3000 mg oral, FU n=29, geom. mean (geom. SD)
[7] = DL10: FdCyd 60 mg + THU 6000 mg oral, FU n=8, geom. mean (geom. SD)
[8] = DL11: FdCyd 80 mg + THU 6000 mg oral, FU n=3, geom. mean (geom. SD)
[9] = All FdCyd doses + THU 3000 mg oral (n=44), geom. mean (geom. SD)
[10] = All FdCyd doses + THU 6000 mg oral (n=11), geom. mean (geom. SD)
[11] = DL1: FdCyd 30 mg + THU 3000 mg oral (n=3), geom. mean (geom. SD)
[12] = DL1: FdCyd 30 mg + THU 3000 mg oral (n=3), no SD given
[13] = DL2: FdCyd 60 mg + THU 3000 mg oral (n=4), geom. mean (geom. SD)
[14] = DL3: FdCyd 90 mg + THU 3000 mg oral (n=3), geom. mean (geom. SD)
[15] = DL4: FdCyd 120 mg + THU 3000 mg oral (n=3), geom. mean (geom. SD)
[16] = DL5-9: FdCyd 160 mg + THU 3000 mg oral (n=31), geom. mean (geom. SD)
[17] = DL10: FdCyd 60 mg + THU 6000 mg oral (n=8), geom. mean (geom. SD)
[18] = DL11: FdCyd 80 mg + THU 6000 mg oral (n=3), geom. mean (geom. SD)
[19] = Total, all dose levels (n=55), geom. mean (geom. SD)

FU AUC0-inf [1, 3]: 0.019 (1.70) mg/L•h | FU Cmax [1, 3]: 0.0042 (1.2) mg/L | FU AUC0-inf [1, 4]: 0.026 (1.54) mg/L•h | FU Cmax [1, 4]: 0.0055 (1.1) mg/L | FU AUC0-inf [1, 5]: 0.032 (1.12) mg/L•h | FU Cmax [1, 5]: 0.0082 (1.4) mg/L | FU AUC0-inf [1, 6]: 0.052 (1.66) mg/L•h | FU Cmax [1, 6]: 0.015 (1.6) mg/L | FU AUC0-inf [1, 7]: 0.033 (1.30) mg/L•h | FU Cmax [1, 7]: 0.011 (1.3) mg/L | FU AUC0-inf [1, 8]: 0.044 (1.36) mg/L•h | FU Cmax [1, 8]: 0.010 (1.1) mg/L | FU urinary excretion over 0-24 hours of day 1 ([2]; All FdCyd doses + THU 3000 mg, N=27, geom. mean (geom. SD)): 0.37 (2.0) % dose | FU urinary excretion over 0-24 hours of day 1 ([2]; All FdCyd doses + THU 6000 mg, N=9, geom. mean (geom. SD)): 0.27 (2.5) % dose | FU urinary excretion over 0-24 hours of day 1 ([2]; DL1: FdCyd 30 mg + THU 3000 mg, N=1): 0.20 (-) % dose | FU urinary excretion over 0-24 hours of day 1 ([2]; DL2: FdCyd 60 mg + THU 3000 mg, N=1): 0.51 (-) % dose | FU urinary excretion over 0-24 hours of day 1 ([2]; DL4: FdCyd 120 mg + THU 3000 mg, N=1): 0.34 (-) % dose | FU urinary excretion over 0-24 hours of day 1 ([2]; DL5-9: FdCyd 160 mg + THU 3000 mg, N=24, geom. mean (geom. SD)): 0.38 (2.1) % dose | FU urinary excretion over 0-24 hours of day 1 ([2]; DL10: FdCyd 60 mg + THU 6000 mg, N=6, geom. mean (geom. SD)): 0.32 (2.5) % dose | FU urinary excretion over 0-24 hours of day 1 ([2]; DL11: FdCyd 80 mg + THU 6000 mg, N=3, geom. mean (geom. SD)): 0.21 (3.0) % dose
SMILES: O=c1[nH]cc(F)c(=O)[nH]1 [FU]

FdUrd AUC/Dose [1, 9]: 0.55 (1.6)^d µg/L•h/mg | FdUrd Cmax/Dose [1, 9]: 0.19 (1.6)^c µg/L / mg | FdUrd t½ [1, 9]: 1.3 (1.9) h | FdUrd/FdCyd metabolic ratio, AUC0-inf [1, 9]: 0.068 (2.1)^f | FdUrd/FdCyd metabolic ratio, Cmax [1, 9]: 0.048 (2.0)^e | FdUrd AUC/Dose [1, 10]: 0.80 (1.6)^d µg/L•h/mg | FdUrd Cmax/Dose [1, 10]: 0.34 (1.5)^c µg/L / mg | FdUrd t½ [1, 10]: 1.2 (1.6) h | FdUrd/FdCyd metabolic ratio, AUC0-inf [1, 10]: 0.067 (1.4)^f | FdUrd/FdCyd metabolic ratio, Cmax [1, 10]: 0.051 (1.9)^e | FdUrd Cmax [1, 11]: 0.012 (1.4) mg/L | FdUrd Cmax/Dose [1, 11]: 0.41 (1.4) µg/L / mg | FdUrd/FdCyd metabolic ratio, Cmax [1, 11]: 0.099 (1.6) | FdUrd AUC0-inf [1, 12]: 0.047 (-) mg/L•h | FdUrd AUC/Dose [1, 12]: 1.58 (-) µg/L•h/mg | FdUrd t½ [1, 12]: 3.3 (-) h | FdUrd/FdCyd metabolic ratio, AUC0-inf [1, 12]: 0.069 (-) | FdUrd AUC0-inf [1, 13]: 0.044 (1.72) mg/L•h | FdUrd AUC/Dose [1, 13]: 0.73 (1.7) µg/L•h/mg | FdUrd Cmax [1, 13]: 0.011 (1.7) mg/L | FdUrd Cmax/Dose [1, 13]: 0.19 (1.7) µg/L / mg | FdUrd t½ [1, 13]: 1.8 (3.4) h | FdUrd/FdCyd metabolic ratio, AUC0-inf [1, 13]: 0.070 (3.5) | FdUrd/FdCyd metabolic ratio, Cmax [1, 13]: 0.039 (2.3) | FdUrd AUC0-inf [1, 14]: 0.043 (1.20) mg/L•h | FdUrd AUC/Dose [1, 14]: 0.48 (1.2) µg/L•h/mg | FdUrd Cmax [1, 14]: 0.015 (1.2) mg/L | FdUrd Cmax/Dose [1, 14]: 0.16 (1.2) µg/L / mg | FdUrd t½ [1, 14]: 1.1 (1.3) h | FdUrd/FdCyd metabolic ratio, AUC0-inf [1, 14]: 0.041 (1.7) | FdUrd/FdCyd metabolic ratio, Cmax [1, 14]: 0.028 (1.7) | FdUrd AUC0-inf [1, 15]: 0.054 (1.97) mg/L•h | FdUrd AUC/Dose [1, 15]: 0.45 (2.0) µg/L•h/mg | FdUrd Cmax [1, 15]: 0.016 (1.6) mg/L | FdUrd Cmax/Dose [1, 15]: 0.14 (1.6) µg/L / mg | FdUrd t½ [1, 15]: 1.7 (1.2) h | FdUrd/FdCyd metabolic ratio, AUC0-inf [1, 15]: 0.034 (1.3) | FdUrd/FdCyd metabolic ratio, Cmax [1, 15]: 0.018 (1.3) | FdUrd AUC0-inf [1, 16]: 0.084 (1.55) mg/L•h | FdUrd AUC/Dose [1, 16]: 0.53 (1.6) µg/L•h/mg | FdUrd Cmax [1, 16]: 0.031 (1.5) mg/L | FdUrd Cmax/Dose [1, 16]: 0.20 (1.5) µg/L / mg | FdUrd t½ [1, 16]: 1.2 (1.7) h | FdUrd/FdCyd metabolic ratio, AUC0-inf [1, 16]: 0.070 (1.8) | FdUrd/FdCyd metabolic ratio, Cmax [1, 16]: 0.054 (1.9) | FdUrd AUC0-inf [1, 17]: 0.047 (1.59) mg/L•h | FdUrd AUC/Dose [1, 17]: 0.79 (1.6) µg/L•h/mg | FdUrd Cmax [1, 17]: 0.023 (1.4) mg/L | FdUrd Cmax/Dose [1, 17]: 0.38 (1.4) µg/L / mg | FdUrd t½ [1, 17]: 1.0 (1.5) h | FdUrd/FdCyd metabolic ratio, AUC0-inf [1, 17]: 0.072 (1.4) | FdUrd/FdCyd metabolic ratio, Cmax [1, 17]: 0.060 (1.8) | FdUrd AUC0-inf [1, 18]: 0.068 (1.68) mg/L•h | FdUrd AUC/Dose [1, 18]: 0.85 (1.7) µg/L•h/mg | FdUrd Cmax [1, 18]: 0.019 (1.6) mg/L | FdUrd Cmax/Dose [1, 18]: 0.24 (1.6) µg/L / mg | FdUrd t½ [1, 18]: 1.7 (1.5) h | FdUrd/FdCyd metabolic ratio, AUC0-inf [1, 18]: 0.056 (1.2) | FdUrd/FdCyd metabolic ratio, Cmax [1, 18]: 0.033 (1.8) | FdUrd Cmax/Dose [1, 19]: 0.22 (1.6) µg/L / mg | FdUrd t½ [1, 19]: 1.3 (1.8) h | FdUrd urinary excretion over 0-24 hours of day 1 ([2]; All FdCyd doses + THU 3000 mg, N=5, geom. mean (geom. SD)): 0.053 (1.3) % dose | FdUrd urinary excretion over 0-24 hours of day 1 ([2]; All FdCyd doses + THU 6000 mg, N=3, geom. mean (geom. SD)): 0.10 (2.6) % dose | FdUrd urinary excretion over 0-24 hours of day 1 ([2]; DL4: FdCyd 120 mg + THU 3000 mg, N=2, geom. mean (geom. SD)): 0.064 (1.0) % dose | FdUrd urinary excretion over 0-24 hours of day 1 ([2]; DL5-9: FdCyd 160 mg + THU 3000 mg, N=3, geom. mean (geom. SD)): 0.047 (1.3) % dose | FdUrd urinary excretion over 0-24 hours of day 1 ([2]; DL10: FdCyd 60 mg + THU 6000 mg, N=2, geom. mean (geom. SD)): 0.14 (2.6) % dose | FdUrd urinary excretion over 0-24 hours of day 1 ([2]; DL11: FdCyd 80 mg + THU 6000 mg, N=1): 0.045 (-) % dose
SMILES: O=c1[nH]c(=O)n([C@H]2C[C@H](O)[C@@H](CO)O2)cc1F [FdUrd]
